We go through 14 molecules from ChEMBL document CHEMBL5291721, “A preclinical secondary pharmacology resource illuminates target-adverse drug reaction associations of marketed drugs” (Nat Commun, 2023).

Each structure is given as a SMILES string.

For test [1], the target named is T1, Alpha-1A adrenergic receptor (Homo sapiens, UniProt P35348).
T1 sequence (P35348 whole entry): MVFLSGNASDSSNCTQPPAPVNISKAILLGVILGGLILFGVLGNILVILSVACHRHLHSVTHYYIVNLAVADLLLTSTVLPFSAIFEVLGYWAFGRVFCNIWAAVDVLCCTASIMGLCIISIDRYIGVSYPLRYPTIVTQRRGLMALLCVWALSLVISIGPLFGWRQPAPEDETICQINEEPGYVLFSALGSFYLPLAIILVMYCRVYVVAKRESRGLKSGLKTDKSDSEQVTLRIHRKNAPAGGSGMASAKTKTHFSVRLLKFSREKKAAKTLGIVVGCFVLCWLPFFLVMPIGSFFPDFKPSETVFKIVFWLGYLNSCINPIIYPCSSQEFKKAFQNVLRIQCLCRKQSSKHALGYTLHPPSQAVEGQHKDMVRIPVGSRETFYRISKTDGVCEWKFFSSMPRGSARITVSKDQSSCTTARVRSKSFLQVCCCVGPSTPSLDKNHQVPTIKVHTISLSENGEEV

For test [2], the target named is T2, Estrogen receptor (Homo sapiens, UniProt P03372).
T2 sequence (P03372 whole entry): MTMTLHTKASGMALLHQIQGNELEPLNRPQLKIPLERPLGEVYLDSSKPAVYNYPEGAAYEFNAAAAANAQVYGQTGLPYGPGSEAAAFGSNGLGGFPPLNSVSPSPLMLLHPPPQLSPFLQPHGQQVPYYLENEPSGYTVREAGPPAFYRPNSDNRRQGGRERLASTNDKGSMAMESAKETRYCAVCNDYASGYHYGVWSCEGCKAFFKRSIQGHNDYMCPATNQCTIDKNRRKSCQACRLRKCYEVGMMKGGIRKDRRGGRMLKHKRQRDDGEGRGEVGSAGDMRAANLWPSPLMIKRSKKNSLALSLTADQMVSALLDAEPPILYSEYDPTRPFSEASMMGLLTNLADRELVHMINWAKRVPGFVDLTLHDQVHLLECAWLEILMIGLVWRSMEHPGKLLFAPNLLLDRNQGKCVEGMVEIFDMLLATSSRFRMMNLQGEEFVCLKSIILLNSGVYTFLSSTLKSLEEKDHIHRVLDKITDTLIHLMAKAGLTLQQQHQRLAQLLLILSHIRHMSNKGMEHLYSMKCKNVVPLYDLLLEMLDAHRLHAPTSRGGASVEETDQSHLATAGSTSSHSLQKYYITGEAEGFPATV

Test [3] has as its target Gamma-aminobutyric acid receptor subunit alpha-1 (Rattus norvegicus, UniProt P62813).
Another test deals with Histamine H1 receptor (Homo sapiens, UniProt P35367).
The target in test [4] is Kappa-type opioid receptor (Homo sapiens, UniProt P41145).
Test [5] has as its target T3, Mu-type opioid receptor (Homo sapiens, UniProt P35372).
For another test, the target named is D(1A) dopamine receptor (Homo sapiens, UniProt P21728). Type of test: functional, cell-based.
For test [6], the target named is 5-hydroxytryptamine receptor 2B (Homo sapiens, UniProt P41595). The test is classed as functional, cell-based.
The target of another test is T4, Progesterone receptor (Homo sapiens, UniProt P06401).
T4 sequence (P06401 whole entry): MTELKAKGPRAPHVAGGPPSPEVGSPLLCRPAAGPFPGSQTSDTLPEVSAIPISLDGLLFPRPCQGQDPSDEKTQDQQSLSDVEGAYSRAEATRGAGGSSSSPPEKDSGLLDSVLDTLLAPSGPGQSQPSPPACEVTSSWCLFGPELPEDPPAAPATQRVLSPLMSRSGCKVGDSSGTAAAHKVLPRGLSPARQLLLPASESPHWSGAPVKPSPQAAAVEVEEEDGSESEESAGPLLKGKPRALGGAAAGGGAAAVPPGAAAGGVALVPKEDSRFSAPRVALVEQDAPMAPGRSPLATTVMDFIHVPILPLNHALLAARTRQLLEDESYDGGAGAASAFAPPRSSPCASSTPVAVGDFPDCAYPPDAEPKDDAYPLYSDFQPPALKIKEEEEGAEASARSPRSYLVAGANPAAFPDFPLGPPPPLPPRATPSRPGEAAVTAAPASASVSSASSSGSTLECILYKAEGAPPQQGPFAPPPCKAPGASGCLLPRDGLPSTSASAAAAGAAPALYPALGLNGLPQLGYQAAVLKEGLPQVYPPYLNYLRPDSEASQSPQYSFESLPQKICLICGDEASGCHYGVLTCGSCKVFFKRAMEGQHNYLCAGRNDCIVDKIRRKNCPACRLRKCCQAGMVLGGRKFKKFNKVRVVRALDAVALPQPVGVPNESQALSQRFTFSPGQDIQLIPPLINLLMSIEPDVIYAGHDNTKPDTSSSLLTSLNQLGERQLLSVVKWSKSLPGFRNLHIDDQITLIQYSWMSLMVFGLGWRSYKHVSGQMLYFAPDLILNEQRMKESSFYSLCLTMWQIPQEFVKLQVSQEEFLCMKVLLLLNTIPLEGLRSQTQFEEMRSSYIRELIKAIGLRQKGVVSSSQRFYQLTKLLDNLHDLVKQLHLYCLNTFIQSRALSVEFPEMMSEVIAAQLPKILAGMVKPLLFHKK
The test is classed as functional.

The next test has as its target Cannabinoid receptor 1 (Homo sapiens, UniProt P21554). Type of test: functional, cell-based.
Test [7] addresses T2, Estrogen receptor. This is another data set of the same source.
Test [8] concerns the target T3, Mu-type opioid receptor. The source holds these as a separate data set.
In test [9] the target is cGMP-inhibited 3',5'-cyclic phosphodiesterase 3A (Homo sapiens, UniProt Q14432). Type of test: functional.
A further test has as its target T5, Thromboxane A2 receptor (Homo sapiens, UniProt P21731).
T5 sequence (P21731 whole entry): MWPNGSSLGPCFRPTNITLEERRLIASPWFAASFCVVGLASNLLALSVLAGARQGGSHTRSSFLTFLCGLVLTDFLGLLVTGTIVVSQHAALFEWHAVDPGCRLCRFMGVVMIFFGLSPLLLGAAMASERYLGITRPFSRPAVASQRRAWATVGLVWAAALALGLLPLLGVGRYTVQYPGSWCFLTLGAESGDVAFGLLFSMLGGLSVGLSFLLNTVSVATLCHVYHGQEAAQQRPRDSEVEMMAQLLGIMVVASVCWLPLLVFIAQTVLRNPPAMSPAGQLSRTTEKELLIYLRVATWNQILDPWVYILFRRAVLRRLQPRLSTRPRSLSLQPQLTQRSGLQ
Type of test: functional, cell-based.

For test [10], the target named is Beta-2 adrenergic receptor (Homo sapiens, UniProt P07550). Type of test: functional, cell-based.
Also: assay procedure not described here.

Sequence of 5-hydroxytryptamine receptor 2B (P41595 whole entry): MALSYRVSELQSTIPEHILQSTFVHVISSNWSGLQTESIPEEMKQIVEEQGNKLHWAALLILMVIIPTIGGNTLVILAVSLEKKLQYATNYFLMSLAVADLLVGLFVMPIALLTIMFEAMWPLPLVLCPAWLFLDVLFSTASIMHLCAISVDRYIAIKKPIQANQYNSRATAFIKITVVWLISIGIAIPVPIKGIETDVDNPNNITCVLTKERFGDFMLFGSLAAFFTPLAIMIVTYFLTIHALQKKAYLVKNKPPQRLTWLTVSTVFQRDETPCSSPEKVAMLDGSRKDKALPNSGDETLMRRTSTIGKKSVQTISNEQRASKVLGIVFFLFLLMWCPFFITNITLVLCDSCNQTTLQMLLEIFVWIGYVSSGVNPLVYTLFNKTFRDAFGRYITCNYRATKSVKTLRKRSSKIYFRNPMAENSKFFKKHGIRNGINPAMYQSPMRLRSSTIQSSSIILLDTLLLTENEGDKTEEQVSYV
Sequence of Cannabinoid receptor 1 (P21554 whole entry): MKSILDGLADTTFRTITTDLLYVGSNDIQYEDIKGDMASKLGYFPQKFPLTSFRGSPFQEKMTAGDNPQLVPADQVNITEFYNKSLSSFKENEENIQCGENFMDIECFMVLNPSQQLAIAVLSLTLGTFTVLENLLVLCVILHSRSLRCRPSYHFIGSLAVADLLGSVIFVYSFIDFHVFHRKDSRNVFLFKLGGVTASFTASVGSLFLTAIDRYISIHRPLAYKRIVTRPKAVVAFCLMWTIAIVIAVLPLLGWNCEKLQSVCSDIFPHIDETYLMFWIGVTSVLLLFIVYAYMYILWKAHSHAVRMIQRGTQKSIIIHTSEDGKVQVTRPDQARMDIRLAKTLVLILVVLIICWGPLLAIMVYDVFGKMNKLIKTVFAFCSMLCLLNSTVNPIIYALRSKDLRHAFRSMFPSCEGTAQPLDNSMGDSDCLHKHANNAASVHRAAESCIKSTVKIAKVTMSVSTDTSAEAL
Sequence of Kappa-type opioid receptor (P41145 whole entry): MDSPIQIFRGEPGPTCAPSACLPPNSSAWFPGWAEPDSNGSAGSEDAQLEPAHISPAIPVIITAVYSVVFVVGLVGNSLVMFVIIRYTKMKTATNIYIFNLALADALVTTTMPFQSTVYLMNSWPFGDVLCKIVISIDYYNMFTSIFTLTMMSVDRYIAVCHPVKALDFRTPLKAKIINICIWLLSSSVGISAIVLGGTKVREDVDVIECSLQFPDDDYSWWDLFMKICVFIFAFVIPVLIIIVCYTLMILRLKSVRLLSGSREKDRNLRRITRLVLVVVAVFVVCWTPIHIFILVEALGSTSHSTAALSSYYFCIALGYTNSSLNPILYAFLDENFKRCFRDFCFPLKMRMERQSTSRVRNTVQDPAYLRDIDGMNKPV
T3 sequence (P35372 whole entry): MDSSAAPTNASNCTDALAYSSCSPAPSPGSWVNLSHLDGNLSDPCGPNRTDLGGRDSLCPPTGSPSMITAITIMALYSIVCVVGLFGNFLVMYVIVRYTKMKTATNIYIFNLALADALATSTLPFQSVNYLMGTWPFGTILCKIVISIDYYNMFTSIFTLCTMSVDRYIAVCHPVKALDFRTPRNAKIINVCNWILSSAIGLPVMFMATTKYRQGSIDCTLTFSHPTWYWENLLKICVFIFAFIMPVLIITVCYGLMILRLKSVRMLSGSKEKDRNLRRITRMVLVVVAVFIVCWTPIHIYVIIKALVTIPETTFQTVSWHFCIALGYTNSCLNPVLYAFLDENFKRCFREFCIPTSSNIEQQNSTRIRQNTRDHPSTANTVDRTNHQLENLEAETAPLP
Sequence of Gamma-aminobutyric acid receptor subunit alpha-1 (P62813 whole entry): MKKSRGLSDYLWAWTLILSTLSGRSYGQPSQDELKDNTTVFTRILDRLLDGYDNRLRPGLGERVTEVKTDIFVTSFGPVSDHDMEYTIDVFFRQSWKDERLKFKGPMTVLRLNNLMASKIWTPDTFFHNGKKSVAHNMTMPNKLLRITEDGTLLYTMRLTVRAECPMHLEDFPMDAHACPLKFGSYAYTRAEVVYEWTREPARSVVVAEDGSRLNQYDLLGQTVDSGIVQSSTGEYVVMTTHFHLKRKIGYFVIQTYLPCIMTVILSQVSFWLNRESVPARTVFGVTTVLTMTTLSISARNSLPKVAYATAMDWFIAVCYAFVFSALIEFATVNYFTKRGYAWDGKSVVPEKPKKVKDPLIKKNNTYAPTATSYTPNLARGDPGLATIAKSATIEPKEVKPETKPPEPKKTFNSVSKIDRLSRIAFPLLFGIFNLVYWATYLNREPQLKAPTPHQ
Sequence of Histamine H1 receptor (P35367 whole entry): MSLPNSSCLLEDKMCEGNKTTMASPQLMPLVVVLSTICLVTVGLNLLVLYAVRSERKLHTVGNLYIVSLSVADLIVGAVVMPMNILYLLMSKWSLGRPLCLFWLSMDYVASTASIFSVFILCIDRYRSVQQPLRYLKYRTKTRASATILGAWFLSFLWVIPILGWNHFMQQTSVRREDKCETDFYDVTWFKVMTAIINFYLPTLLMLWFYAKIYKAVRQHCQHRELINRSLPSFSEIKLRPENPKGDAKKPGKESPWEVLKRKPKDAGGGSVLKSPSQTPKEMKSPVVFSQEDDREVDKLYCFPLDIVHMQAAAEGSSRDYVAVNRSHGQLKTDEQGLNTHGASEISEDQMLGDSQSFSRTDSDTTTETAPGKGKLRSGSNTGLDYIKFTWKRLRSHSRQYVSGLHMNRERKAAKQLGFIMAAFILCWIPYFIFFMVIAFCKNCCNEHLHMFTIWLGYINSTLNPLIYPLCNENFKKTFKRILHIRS
Sequence of D(1A) dopamine receptor (P21728 whole entry): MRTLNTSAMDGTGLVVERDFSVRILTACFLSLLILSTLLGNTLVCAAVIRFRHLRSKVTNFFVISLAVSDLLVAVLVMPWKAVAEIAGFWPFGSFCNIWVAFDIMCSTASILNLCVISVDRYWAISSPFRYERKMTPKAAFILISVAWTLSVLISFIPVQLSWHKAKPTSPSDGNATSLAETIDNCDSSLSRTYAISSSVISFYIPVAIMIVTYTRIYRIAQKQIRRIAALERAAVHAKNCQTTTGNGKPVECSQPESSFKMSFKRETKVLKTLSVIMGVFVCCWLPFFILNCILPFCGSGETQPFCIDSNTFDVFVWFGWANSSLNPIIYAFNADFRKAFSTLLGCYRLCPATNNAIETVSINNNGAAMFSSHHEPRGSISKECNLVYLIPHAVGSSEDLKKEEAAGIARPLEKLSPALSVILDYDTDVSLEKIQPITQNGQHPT
Sequence of cGMP-inhibited 3',5'-cyclic phosphodiesterase 3A (Q14432 whole entry): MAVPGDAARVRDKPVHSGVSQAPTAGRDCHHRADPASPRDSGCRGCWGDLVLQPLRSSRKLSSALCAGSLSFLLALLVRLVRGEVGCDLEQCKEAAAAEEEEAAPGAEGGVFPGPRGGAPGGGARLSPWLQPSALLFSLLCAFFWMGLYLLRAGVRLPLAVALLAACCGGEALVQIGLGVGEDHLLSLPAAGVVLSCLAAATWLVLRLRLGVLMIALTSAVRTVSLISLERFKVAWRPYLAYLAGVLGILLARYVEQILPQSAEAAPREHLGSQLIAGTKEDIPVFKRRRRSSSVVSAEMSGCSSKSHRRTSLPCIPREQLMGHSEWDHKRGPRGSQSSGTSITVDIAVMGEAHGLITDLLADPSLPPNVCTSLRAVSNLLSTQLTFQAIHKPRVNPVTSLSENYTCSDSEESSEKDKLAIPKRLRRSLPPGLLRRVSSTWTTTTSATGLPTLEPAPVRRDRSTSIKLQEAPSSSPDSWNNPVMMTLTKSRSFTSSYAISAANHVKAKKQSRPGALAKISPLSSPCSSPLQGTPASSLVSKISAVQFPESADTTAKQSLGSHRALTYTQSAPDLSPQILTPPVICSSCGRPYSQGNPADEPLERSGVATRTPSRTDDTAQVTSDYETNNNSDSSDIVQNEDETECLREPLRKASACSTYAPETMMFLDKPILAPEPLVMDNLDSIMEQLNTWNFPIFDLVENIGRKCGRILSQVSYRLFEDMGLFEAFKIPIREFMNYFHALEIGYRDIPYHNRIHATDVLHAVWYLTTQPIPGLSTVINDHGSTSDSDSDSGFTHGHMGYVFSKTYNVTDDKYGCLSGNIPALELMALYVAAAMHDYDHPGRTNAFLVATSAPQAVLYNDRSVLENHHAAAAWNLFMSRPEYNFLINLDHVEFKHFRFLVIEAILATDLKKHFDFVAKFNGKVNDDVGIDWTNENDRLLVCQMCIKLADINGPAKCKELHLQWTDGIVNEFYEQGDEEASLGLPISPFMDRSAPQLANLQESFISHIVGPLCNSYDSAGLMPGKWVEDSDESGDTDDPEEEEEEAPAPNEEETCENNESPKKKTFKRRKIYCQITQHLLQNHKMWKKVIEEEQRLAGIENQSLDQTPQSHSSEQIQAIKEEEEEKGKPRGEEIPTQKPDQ
Sequence of Beta-2 adrenergic receptor (P07550 whole entry): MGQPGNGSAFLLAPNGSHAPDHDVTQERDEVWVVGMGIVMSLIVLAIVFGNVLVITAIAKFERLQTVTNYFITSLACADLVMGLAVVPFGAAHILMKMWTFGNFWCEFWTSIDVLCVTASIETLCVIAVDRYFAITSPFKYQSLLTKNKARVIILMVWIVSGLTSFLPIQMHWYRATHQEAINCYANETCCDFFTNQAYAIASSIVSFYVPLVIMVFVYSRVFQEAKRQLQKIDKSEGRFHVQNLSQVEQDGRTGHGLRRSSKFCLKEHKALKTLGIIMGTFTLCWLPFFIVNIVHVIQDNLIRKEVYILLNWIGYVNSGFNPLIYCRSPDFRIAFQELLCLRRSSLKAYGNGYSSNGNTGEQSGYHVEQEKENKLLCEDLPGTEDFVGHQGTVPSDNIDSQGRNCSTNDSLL

As a reminder, the AC50 is the concentration giving half of the maximal activity seen. High values mean weaker potency, low ones greater potency. On to `CCC[C@H](NC(=O)[C@@H]1[C@H]2CCC[C@H]2CN1C(=O)[C@@H](NC(=O)[C@@H](NC(=O)c1cnccn1)C1CCCCC1)C(C)(C)C)C(=O)C(=O)NC1CC1`, for which the AC50 in test [1] was greater than 10 µM; on Estrogen receptor [2] it was greater than 30 µM; in [3], greater than 10 µM; on Histamine H1 receptor, greater than 10 µM; in [4], greater than 10 µM; on Mu-type opioid receptor [5] it was greater than 30 µM.
With `CC1OC2(CS1)CN1CCC2CC1` (configuration not stated) [CEVIMELINE], the AC50 in test [1] was greater than 30 µM; at D(1A) dopamine receptor, greater than 30 µM; at Estrogen receptor [2], greater than 10 µM; in [3], greater than 10 µM; on Histamine H1 receptor it was greater than 30 µM; in test [6], greater than 10 µM. For the same molecule, the AC50 in [4] is greater than 10 µM; on Progesterone receptor it was greater than 10 µM; on Mu-type opioid receptor [5], greater than 30 µM.
`CC(C)(C)C(=O)OCC(=O)[C@H]1CC[C@H]2[C@@H]3CCC4=CC(=O)CC[C@]4(C)[C@H]3CC[C@]12C` [DESOXYCORTICOSTERONE PIVALATE]: the AC50 in test [1] is greater than 10 µM; on Cannabinoid receptor 1 it was greater than 30 µM; on D(1A) dopamine receptor, greater than 10 µM; at Estrogen receptor [2] it was greater than 30 µM; in test [3] it was greater than 10 µM; on Histamine H1 receptor it was greater than 10 µM. Further, the half-maximal activity concentration (AC50) in [6] is greater than 10 µM; in [4], greater than 10 µM; on Progesterone receptor, 0.213 µM; on Mu-type opioid receptor [5], greater than 30 µM.
As for `CC(C(=O)O)c1ccc(-c2ccccc2)c(F)c1` (configuration not stated) [FLURBIPROFEN], the half-maximal activity concentration (AC50) in test [1] was greater than 10 µM; on D(1A) dopamine receptor, greater than 10 µM; at Estrogen receptor [2], greater than 30 µM; at Estrogen receptor [7], greater than 30 µM; in test [3] it was greater than 10 µM; in test [6], greater than 10 µM. Also, the AC50 is greater than 10 µM in [4]; greater than 30 µM on Mu-type opioid receptor [8]; greater than 30 µM in [9]; greater than 30 µM at Thromboxane A2 receptor; greater than 30 µM at Mu-type opioid receptor [5].
For `Cc1cnc(C(=O)NCCc2ccc(S(=O)(=O)NC(=O)NC3CCCCC3)cc2)cn1` [GLIPIZIDE], the half-maximal activity concentration (AC50) was greater than 10 µM in test [1]; greater than 30 µM at Estrogen receptor [2]; greater than 30 µM at Estrogen receptor [7]; greater than 10 µM in test [4]; greater than 30 µM in test [9]; greater than 30 µM at Thromboxane A2 receptor.
Regarding `CCC1(c2ccccc2)CCC(=O)NC1=O` (configuration not stated) [GLUTETHIMIDE], the AC50 in [1] was greater than 10 µM; at Cannabinoid receptor 1, greater than 30 µM; on D(1A) dopamine receptor, greater than 10 µM; on Estrogen receptor [2], greater than 10 µM; in [3], greater than 10 µM; at Histamine H1 receptor, greater than 10 µM. Further, the AC50 in test [6] is greater than 10 µM; in [4], greater than 10 µM; on Progesterone receptor, greater than 10 µM; at Mu-type opioid receptor [5], greater than 30 µM.
As for `C[C@H](Cc1ccc(O)c(O)c1)[C@@H](C)Cc1ccc(O)c(O)c1` [MASOPROCOL], the AC50 in [1] is 8.61 µM; at Cannabinoid receptor 1 it was greater than 30 µM; at D(1A) dopamine receptor it was greater than 10 µM; at Estrogen receptor [2] it was 0.749 µM; in [3], greater than 10 µM; on Histamine H1 receptor, greater than 30 µM. The concentration at half-maximal activity (AC50) was 11 µM in [6], 15 µM in test [4], greater than 30 µM at Progesterone receptor and greater than 30 µM at Mu-type opioid receptor [5].
Consider `OC1(c2ccc(Cl)cc2)c2ccccc2C2=NCCN21` (configuration not stated) [MAZINDOL], for which the AC50 in test [1] was greater than 10 µM; at Cannabinoid receptor 1, greater than 30 µM; on D(1A) dopamine receptor, greater than 30 µM; on Estrogen receptor [2], greater than 30 µM; in test [3], greater than 30 µM; on Histamine H1 receptor, 7.5 µM. Further, the concentration at half-maximal activity (AC50) was greater than 30 µM in test [6], greater than 30 µM in [4], greater than 30 µM on Progesterone receptor and greater than 10 µM on Mu-type opioid receptor [5].
Turning to `[H]/N=C(/N)N/C(=N/[H])NCCc1ccccc1` [PHENFORMIN], the half-maximal activity concentration (AC50) is 15 µM in test [1]; greater than 30 µM at D(1A) dopamine receptor; greater than 30 µM at Estrogen receptor [2]; greater than 10 µM in test [3]; greater than 30 µM at Histamine H1 receptor; greater than 10 µM in [6]. In addition, the values for the AC50 (in [4]; at Mu-type opioid receptor [5]) were greater than 10 µM and greater than 30 µM, respectively.
Regarding `CCCN[C@H]1CCc2nc(N)sc2C1` [PRAMIPEXOLE], the concentration at half-maximal activity (AC50) in [1] was greater than 10 µM; at Cannabinoid receptor 1, greater than 30 µM; in [3] it was greater than 10 µM; on Histamine H1 receptor, greater than 10 µM; in test [6] it was greater than 10 µM; in test [4], greater than 10 µM. Further, the AC50 on Progesterone receptor and on Mu-type opioid receptor [5] was greater than 30 µM throughout.
With `CNCc1ccc(-c2[nH]c3cc(F)cc4c3c2CCNC4=O)cc1` [RUCAPARIB], the concentration at half-maximal activity (AC50) was 12.3 µM in test [1]; greater than 30 µM at Estrogen receptor [2]; greater than 10 µM at Histamine H1 receptor; 15.6 µM on Progesterone receptor; greater than 30 µM at Mu-type opioid receptor [5].
With `Cc1noc(NS(=O)(=O)c2ccc(N)cc2)c1C` [SULFISOXAZOLE], the half-maximal activity concentration (AC50) in test [1] was greater than 10 µM; on Cannabinoid receptor 1 it was greater than 30 µM; on D(1A) dopamine receptor, greater than 10 µM; at Estrogen receptor [2] it was greater than 10 µM; in test [3], greater than 10 µM; in test [6], greater than 10 µM. For the same molecule, the figures for the AC50 (in [4]; at Progesterone receptor; on Mu-type opioid receptor [5]) were greater than 10 µM, greater than 10 µM and greater than 30 µM, respectively.
Consider `Cc1cc2cc3c(C)cc(=O)oc3c(C)c2o1` [TRIOXSALEN], for which the half-maximal activity concentration (AC50) was greater than 10 µM in [1]; greater than 10 µM at D(1A) dopamine receptor; greater than 30 µM at Estrogen receptor [2]; greater than 10 µM in test [3]; greater than 10 µM in test [6]; greater than 10 µM in [4]. Also, the AC50 at Progesterone receptor and on Mu-type opioid receptor [5] was greater than 30 µM each time.
On to `CCOC(=O)C1=C[C@]2(CC)CCCN3CCc4c(n1c1ccccc41)[C@@H]32` [VINPOCETINE], for which the AC50 (in [10]; at Cannabinoid receptor 1; on D(1A) dopamine receptor; in test [3]; on Histamine H1 receptor; in test [4]) was greater than 30 µM in each case. On Progesterone receptor, this molecule returned an AC50 greater than 30 µM.
